Patent publication US5071858A, “Antipsychotic benzothiopyranylamines” (Ciba-Geigy Corporation, priority 1990, dated 1991)

Legend:
[1] = target: T1, serotonin-2 receptor (5HT-2 receptor) (Rattus norvegicus, UniProt P14842); assay: serotonin-2 receptor binding assay (3H-ketanserin displacement); settings: frontal/parietal cortex membranes of male Sprague-Dawley rats
T1 construct: membrane preparations of frontal/parietal cortex from male Sprague-Dawley rats; from tissue; host or cells: frontal/parietal cortex membranes of male Sprague-Dawley rats
Protocol: The compounds described above are active e.g. in the following test system indicative of serotonin-2 receptor antagonism: The serotonin-2 receptor (also named 5-hydroxytryptamine-2 or 5HT-2 receptor) binding properties are determined in vitro by measuring the ability of said compounds to inhibit the specific binding of ^3 H-ketanserin in membrane preparations of frontal/parietal cortex from male Sprague-Dawley rats essentially as described by
Battaglia et al. in Life Sciences 33, 2011 (1983). IC50 values, representing the concentration of compound required to displace 50% of ^3 H-ketanserin, are determined by log-logit analysis of the specific binding data. Illustrative of the invention, the compound of example 1 is effective in the serotonin-2 receptor binding assay having an […] value of about 5 nM.

[2] = tested on: Sidman avoidance responding; assay: Sidman avoidance model; format: in vivo, squirrel monkey (Samiri sciureus); settings: squirrel monkeys
Protocol: The test is carried out as follows: Adult male squirrel monkeys (Samiri sciureus, 700-1200 g) are trained to press a lever to delay by 20 sec. the delivery of a brief electrical footshock. If the animal fails to respond within a 20 sec. interval, brief (0.5 sec.) shocks (5 mA) are delivered every 20 sec. until the animal again presses the lever. The total number of avoidance responses and avoidance failures (shocks received) are recorded during the test session, which lasts 4 hours. The monkeys are tested two days per week, the first day serving as a baseline control. The test compound is administered orally in a cornstarch vehicle 10 min. prior to the start of the test session. […] An approximate dose ratio of three between avoidance blockade and induction of dyskinesias is found for the compound of example 1.

T1 sequence (P14842 whole entry): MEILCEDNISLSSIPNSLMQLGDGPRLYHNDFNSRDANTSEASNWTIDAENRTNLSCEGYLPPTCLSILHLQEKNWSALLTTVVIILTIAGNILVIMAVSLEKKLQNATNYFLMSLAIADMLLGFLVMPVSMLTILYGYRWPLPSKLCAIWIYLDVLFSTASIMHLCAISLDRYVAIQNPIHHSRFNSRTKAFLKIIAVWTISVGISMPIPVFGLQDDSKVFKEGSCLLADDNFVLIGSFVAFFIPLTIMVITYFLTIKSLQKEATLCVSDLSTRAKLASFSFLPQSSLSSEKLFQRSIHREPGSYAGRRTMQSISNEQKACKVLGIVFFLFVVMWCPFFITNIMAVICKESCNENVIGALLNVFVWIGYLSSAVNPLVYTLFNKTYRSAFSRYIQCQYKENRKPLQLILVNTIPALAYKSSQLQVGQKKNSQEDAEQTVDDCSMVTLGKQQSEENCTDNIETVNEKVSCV

Q: With `O=C(c1ccc(F)cc1)C1CCN(CC2CSc3ccc(F)cc3C2)CC1` (centres unmarked) [Example 1, 1-[(6-Fluoro-3,4-dihydro-2H-1-benzothiopyran-3-yl)methyl]-4-piperidinyl p-fluorophenyl ketone] as the compound, how does the EC50 [1] read?
A: ~5 nM

Q: And the “dose ratio between avoidance blockade and induction of dyskinesias” value [2]?
A: three
